Assay results: PMC7283271, “ADP binding by the Culex quinquefasciatus mosquito D7 salivary protein enhances blood feeding on mammals” (Nature Communications, 2020)

Experiments:
Type in all cases: binding
[1] = target: T1, CxD7L1 (Culex quinquefasciatus, UniProt A0A1S4K3K8); test: crystal structure ([…] Å) and ITC; design: gene D7L1; mature protein
Target sequence in this assay (A0A1S4K3K8 17-311): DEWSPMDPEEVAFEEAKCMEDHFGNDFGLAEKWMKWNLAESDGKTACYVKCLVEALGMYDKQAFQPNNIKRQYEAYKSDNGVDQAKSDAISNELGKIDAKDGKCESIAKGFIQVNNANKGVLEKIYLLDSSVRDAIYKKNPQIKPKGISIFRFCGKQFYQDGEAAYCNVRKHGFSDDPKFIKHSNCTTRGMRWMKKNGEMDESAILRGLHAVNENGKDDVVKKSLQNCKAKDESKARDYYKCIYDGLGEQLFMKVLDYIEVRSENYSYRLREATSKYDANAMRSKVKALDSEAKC

[2] = target: T1, CxD7L1; test: ITC; design: gene D7L1; mature protein, C-terminal 6x-His, HEK293
Target sequence in this assay (A0A1S4K3K8 17-311 limits assumed): as the sequence (A0A1S4K3K8 17-311) above

[3] = target: T2, CxD7L2 (Culex quinquefasciatus, UniProt B0X6Z1); test: ITC
T2 construct: gene D7L2; full-length mature protein, C-terminal 6x-His, HEK293
T2 sequence (B0X6Z1 21-313 limits assumed): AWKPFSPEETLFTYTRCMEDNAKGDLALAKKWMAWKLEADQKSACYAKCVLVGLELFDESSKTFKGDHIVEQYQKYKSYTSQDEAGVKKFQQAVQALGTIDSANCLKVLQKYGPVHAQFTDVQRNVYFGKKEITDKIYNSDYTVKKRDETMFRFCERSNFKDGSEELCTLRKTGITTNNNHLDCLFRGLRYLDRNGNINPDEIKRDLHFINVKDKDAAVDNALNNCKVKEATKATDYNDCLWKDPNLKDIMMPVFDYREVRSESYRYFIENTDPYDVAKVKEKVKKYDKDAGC

SMILES: Nc1ncnc2c1ncn2[C@@H]1O[C@H](COP(=O)(O)OP(=O)(O)O)[C@@H](O)[C@H]1O [ADP]
- Kd [1]: 32.7 nM

SMILES: Nc1ncnc2c1ncn2[C@@H]1O[C@H](CO)[C@@H](O)[C@H]1O [Adenosine]
- Kd [2]: 313 nM

SMILES: CNC[C@H](O)c1ccc(O)c(O)c1 [Epinephrine]
- Kd [3]: 226 nM
